Reference: ChEMBL document CHEMBL5725235, “3-cyclohexenyl and cyclohexyl substituted indole and indazole compounds as RORgammaT inhibitors and uses thereof” (2016)

Assay: TR-FRET Assay: To identify novel antagonists of RORgammaT, an assay was developed which employs the interaction of RORgammaT with its co-activator peptide SRC1_2. This peptide mimics the recruitment of co-activators to RORgammaT through its interaction with the LXXLL (SEQ ID NO:1) (e.g., NR box) motifs (Xie et al., J. Immunol. 175: 3800-09, 2005; Kurebayashi et al., Biochem. Biophys. Res. Commun. 315: 919-27, 2004; Jin et al., Mol. Endocrinology 24:923-29, 2010). The RORγ-Ligand Binding Domain TR-FRET Assay was run according to the following protocol.HIS-tagged RORγ-LBD protein was expressed in SF9 cells using a baculovirus expression system. The RORγ-LBD protein was purified by […] chromatography. Separately, SF9 cells not expressing any recombinant protein were lysed and the lysate was added to the purified RORγ-LBD at 0.25 ul lysate (from 10,000 SF9 cells)/nM purified protein. The mixture was then diluted in assay buffer (50 mM Tris pH 7.0, 50 mM KCl, 1 mM EDTA, 0.1 mM DTT) to obtain RORγ-LBD final concentration of 3 nM in 384-well assay plate. Compounds to be tested were injected to the assay plate using Acoustic Droplet Ejection technology by Echo 550 liquid handler (Labcyte, Calif.). A stock of biotinylated-LXXLL peptide from coactivator SRC1 (Biotin-[…]) (SEQ ID NO:2) was prepared in assay buffer and added to each well (100 nM final concentration). […]

Row | IC50 [nM] | Structure (SMILES)
1 | 343 | CC1(C)CC(c2nn(C(=O)c3c(Cl)cccc3C(F)(F)F)c3cccc(F)c23)=CC[C@H]1C(=O)O
2 | 21 | CC1(C(=O)O)CC=C(c2nn(C(=O)c3c(Cl)cccc3C(F)(F)F)c3cccc(F)c23)CC1 (configuration not stated)
